How the values were obtained:
[1] = tested on: pheochromocytoma cells (PC-12); assay: Tests of H2O2 toxicity on pheochromocytoma cells (PC-12); format: cell-based; conditions: 10^−8 M; PC-12, H2O2 30 minutes, 24 hours of observation; H2O2 alone approximately 38%
Method: In these tests, a pheochromocytoma cell (PC-12) culture was used containing 3×10^5 M cells/ml which was submitted for 30 minutes to 0.1 g mM H2O2.

[2] = tested on: PAF-induced oedema of the rat paw; assay: PAF-induced inflammatory reaction tests (paw oedema, plethysmographic); format: in vivo; conditions: 300 mg/kg i.p. one hour before PAF 2 μg into rear paw, rats
Method: In these experiments, a solution containing PAF was injected into the paws of rats according to the method described by Burstein (Burstein S. H., J. Pharmacol. Exptl. Ther., 251:531, 1989).
As is known, PAF injected into the rat paw causes the release of numerous phlogogenic substances, including prostaglandins, which gives rise in a short time to the onset of marked oedema (Bonnet J., J. Agent Actions, 11:559, 1981).
Using the method described by Goldenberg (Goldenberg M. M., Prostaglandins, 28:271, 1984) and Silva (Silva P. M. R., Inflammation, 10:393, 1986), a solution of PAF at an overall dose of 2 μg was injected into the rear paws of rats, and the ensuing oedematous reaction was evaluated with a plethysmographic method according to the technique described by Ferreira (Ferreira S. H., J. Pharmacol., 127:83, 1979).
The tests were conducted in various groups of rats, one of which was a control group, while the others received intraperitoneal administrations, one hour before to PAF injection, of acetyl L-carnitine (300 mg/kg), or propionyl L-carnitine (300 mg/kg), or of a combination of L-carnitine (75 mg/kg), acetyl L-carnitine (75 mg/kg) and propionyl L-carnitine (75 mg/kg), or of a Ginkgo biloba extract (100 mg/kg), or of the Ginkgo biloba extract plus carnitines.

[3] = tested on: cerebral ischaemia induced by endothelin-1 (MCA occlusion); assay: Tests of protection against experimentally induced cerebral ischaemia (endothelin-1, MCA occlusion); format: in vivo; conditions: rat; i.v. 5 minutes after endothelin-1; propionyl/acetyl L-carnitine 50 mg/kg, Ginkgo biloba 10 mg/kg; checked after 3 days
Method: Since a major responsible for causing damage following cerebral ischaemia is known to be the production of superoxides and free radicals (Litton S. A., Nature, 364:625, 1993), in these tests cerebral ischaemia was brought about by occluding the middle cerebral artery (MCA) of the rat according to the method described by Scharkey (Scharkey Y., Nature, 371:336, 1994) by injecting to the anaesthetized animal endothelin-1 (120 pml), for a duration of 3 minutes with a microcannula placed stereotactically in the pyriform cortex at the level of the middle cerebral artery (MCA).
The ischaemic area thus produced was checked after 3 days with transcardiac perfusion of paraformaldehyde solution (4% in PBS).
After removing the brain and placing it in a fixator containing 10% saccharose, cryostat sections were fixed in methyl violet and examined under the optical microscope.
The administration of propionyl L-carnitine (50 mg/kg), acetyl L-carnitine (50 mg/kg) and of a solution of Ginkgo biloba (10 mg/kg), or these compounds in combination, was performed intravenously 5 minutes following injection of endothelin-1.
The volume of the infarcted area was calculated according to the method described by Park (Park C., Anns. Neurol., 20:150, 1989).

[4] = tested on: pitressin-induced coronary spasm; assay: Coronary spasm tests (pitressin); format: in vivo, rat; conditions: oral, three days before pitressin i.v.; Ginkgo biloba extract 100 mg/kg, carnitines or carnitine mixture 300 mg/kg; number of rats
Text: Enhancement of the activity of Ginkgo biloba when combined with carnitines was also found on evaluating the effects of the administration of these substances alone and in combination on pitressin-induced experimental coronary spasm.
As is known, intravenous injection of 1 v/kg of pitressin in the rat causes characteristic electrocardiographic abnormalities which are most noticeable in lead II as affecting the T wave (asphyxial T wave) due to the diminished myocardial oxygenation related to the reduced coronary flow caused by the pitressin-induced vascular spasm.
In these tests, before being injected with pitressin, the rats received oral administrations for three days consecutively of 100 mg/kg of Ginkgo biloba extracts, or of 300 mg/kg of carnitines alone or carnitine mixture, or of carnitine or carnitine mixture in combination with Ginkgo biloba.

[5] = tested on: collagen-induced platelet aggregation; assay: Platelet aggregation tests; format: cell-based, human (healthy volunteers); conditions: collagen 2.5 μg/ml, 10 minutes' incubation; for ED50 (platelet aggregation): human blood
Method: In these tests, blood samples were taken from healthy volunteers with a platelet content of at least 300,000/mm^3. The method described by Born (Born J. V. R. J. Physiol., 26:25 1963) was used to induce platelet aggregation.
Platelet aggregation was induced by collagen (2.5 μg/ml) and measured both at the beginning and after 10 minutes' incubation with propionyl L-carnitine, acetyl L-carnitine, Ginkgo biloba extract or with these compounds in various combinations.

PAF-induced mortality = PAF-induced mortality tests; format: in vivo, albino mice; conditions: 300 mg/kg i.p. one hour before PAF 20 μg/kg i.v., mice
Method: Platelet-activating factor (PAF) is an acetylated alkyl phosphoglyceride whose release in the body, under various stimuli, causes circulatory-type reactions related mainly to increased capillary permeability, with consequent extravasation of blood, increased platelet aggregation and thrombosis, reduced coronary flow, release of inflammatory factors, lysosomal enzymes and superoxides.
When administered intravenously (20 μg/kg) to animals, PAF causes the death of the animals treated with it in a short space of time, i.e. approximately one hour, mainly as a result of cardiocirculatory collapse.
A series of tests was conducted using the method described by Young (Young J. N., Prostaglandins 30:545, 1985) and by Myers (Myers H., Br. J. Pharmacol., 79:595, 1983) in order to assess whether Ginkgo biloba extracts (whose anti-PAF activity is known) protect animals injected with PAF against death and whether the carnitines (particularly propionyl L-carnitine, whose vascular regulatory activity is known) are capable of increasing the protective effect against PAF.
The tests were conducted on albino mice with a mean weight of 25 g divided into various groups, the first of which served as control group and received intravenous injections of PAF at the dose of 20 μg/kg, while the other groups were administered intraperitoneal injections, one hour before to PAF administration, either of Ginkgo biloba extract, or of the various carnitines alone or in combination, or of Ginkgo biloba plus carnitines.

Q: Which “survival of the cells” value [1] does the source give for CC(=O)O[C@H](CC(=O)[O-])C[N+](C)(C)C [Acetyl L-carnitine, acetyl L-carnitine] here?
A: 55%

Q: What about the “% reduction of oedema” value [2] of the same compound?
A: 15%

Q: And the “magnitude of ischaemia (volume mm^3) due to MCA occlusion” value [3]?
A: 21.6 ± 1.8 mm^3

Q: What about the Rats not protected [4] of the same compound?
A: 3

Q: And the Rats protected [4]?
A: 1

Q: What about the Rats weakly protected [4] of the same compound?
A: 3

Q: And the “reduction of platelet aggregation (in words)” value [5]?
A: only to a slight extent

Q: And the “ED50 (platelet aggregation)” value [5]?
A: 26.4 ± 0.34 µg

Q: What about the “% mortality 1 h after PAF injection” value (PAF-induced mortality) of the same compound?
A: 80/100

Q: How did the “% reduction of oedema” value [2] turn out when C[N+](C)(C)C[C@H](O)CC(=O)[O-] [L-carnitine] was run?
A: 10%

Q: And the Rats not protected [4]?
A: 3

Q: And the Rats protected [4]?
A: 0

Q: And the Rats weakly protected [4]?
A: 1

Q: And the “% mortality 1 h after PAF injection” value (PAF-induced mortality)?
A: 90/100

Q: CCC(=O)O[C@H](CC(=O)[O-])C[N+](C)(C)C [Propionyl L-carnitine, propionyl L-carnitine] was tested. Which “survival of the cells” value [1] did it give?
A: 45%

Q: What about the “% reduction of oedema” value [2] of the same compound?
A: 35%

Q: What about the “magnitude of ischaemia (volume mm^3) due to MCA occlusion” value [3] of the same compound?
A: 32.6 ± 2.4 mm^3

Q: What about the Rats not protected [4] of the same compound?
A: 4

Q: What about the Rats protected [4] of the same compound?
A: 2

Q: What about the Rats weakly protected [4] of the same compound?
A: 3

Q: And the “reduction of platelet aggregation (in words)” value [5]?
A: only to a slight extent

Q: And the “ED50 (platelet aggregation)” value [5]?
A: 30.5 ± 0.41 µg

Q: What about the “% mortality 1 h after PAF injection” value (PAF-induced mortality) of the same compound?
A: 80/100
